This assay has as its target T1, α4β7 integrin (Homo sapiens, UniProt P13612+P26010).
T1 construct: monitoring the capture of α4β7 integrin expressing cells on a recombinant MadCAM-1 extracellular domain-coated plate; endogenous in cells; host or cells: RPMI8866 cells
T1 sequence (P13612 34-1032): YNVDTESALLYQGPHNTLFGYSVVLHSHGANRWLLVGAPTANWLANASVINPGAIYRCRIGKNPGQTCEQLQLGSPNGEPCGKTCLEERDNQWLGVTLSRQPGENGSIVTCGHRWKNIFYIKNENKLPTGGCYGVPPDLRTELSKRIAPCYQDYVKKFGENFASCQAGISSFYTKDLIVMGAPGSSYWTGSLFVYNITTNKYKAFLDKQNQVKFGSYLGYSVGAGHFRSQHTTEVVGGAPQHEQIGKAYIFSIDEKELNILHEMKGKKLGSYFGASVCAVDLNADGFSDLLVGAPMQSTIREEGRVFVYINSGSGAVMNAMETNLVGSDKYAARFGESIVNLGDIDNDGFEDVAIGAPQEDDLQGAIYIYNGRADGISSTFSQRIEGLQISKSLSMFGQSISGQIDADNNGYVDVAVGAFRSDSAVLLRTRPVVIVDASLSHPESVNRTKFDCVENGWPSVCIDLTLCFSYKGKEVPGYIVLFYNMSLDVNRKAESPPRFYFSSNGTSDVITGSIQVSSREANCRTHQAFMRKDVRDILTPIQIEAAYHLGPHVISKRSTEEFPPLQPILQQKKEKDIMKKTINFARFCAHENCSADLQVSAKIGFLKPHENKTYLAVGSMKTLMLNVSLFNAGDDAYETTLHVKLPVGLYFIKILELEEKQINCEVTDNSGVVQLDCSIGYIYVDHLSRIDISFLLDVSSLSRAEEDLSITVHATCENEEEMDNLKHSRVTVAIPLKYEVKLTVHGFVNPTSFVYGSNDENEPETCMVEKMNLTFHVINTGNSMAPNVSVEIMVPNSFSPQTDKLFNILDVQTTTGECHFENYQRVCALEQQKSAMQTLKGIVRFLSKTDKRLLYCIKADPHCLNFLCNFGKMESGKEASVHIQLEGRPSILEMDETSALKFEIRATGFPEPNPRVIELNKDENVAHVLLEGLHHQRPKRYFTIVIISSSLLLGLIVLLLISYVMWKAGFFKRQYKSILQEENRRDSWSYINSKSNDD
T1 sequence (P26010 20-798): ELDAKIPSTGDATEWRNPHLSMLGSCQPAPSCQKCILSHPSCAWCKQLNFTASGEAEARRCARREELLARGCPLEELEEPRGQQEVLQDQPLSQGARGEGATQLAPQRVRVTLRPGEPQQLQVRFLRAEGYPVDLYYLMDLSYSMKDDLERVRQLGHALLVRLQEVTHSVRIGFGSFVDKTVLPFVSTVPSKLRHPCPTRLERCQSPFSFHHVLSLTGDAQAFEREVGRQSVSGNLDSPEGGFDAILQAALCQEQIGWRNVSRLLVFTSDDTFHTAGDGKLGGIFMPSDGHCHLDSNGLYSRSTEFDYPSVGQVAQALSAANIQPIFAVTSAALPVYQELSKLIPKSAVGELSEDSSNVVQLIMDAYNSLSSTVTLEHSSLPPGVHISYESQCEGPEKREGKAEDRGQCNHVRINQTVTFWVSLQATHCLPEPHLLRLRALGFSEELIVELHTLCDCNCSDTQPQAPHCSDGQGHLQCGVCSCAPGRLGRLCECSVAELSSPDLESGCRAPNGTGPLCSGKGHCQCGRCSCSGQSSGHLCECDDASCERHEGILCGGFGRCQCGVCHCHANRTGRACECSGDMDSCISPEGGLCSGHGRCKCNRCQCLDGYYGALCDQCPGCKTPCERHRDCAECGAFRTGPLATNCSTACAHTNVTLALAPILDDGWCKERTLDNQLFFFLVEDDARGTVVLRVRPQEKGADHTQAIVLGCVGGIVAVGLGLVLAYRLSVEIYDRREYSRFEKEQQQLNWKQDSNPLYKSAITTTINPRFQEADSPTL
The assay can be described thus: α4β7 Integrin Cell Capture Assay. Type of assay: cell-based. The conditions noted are these: capture of α4β7 integrin expressing RPMI8866 cells on recombinant MadCAM-1 extracellular domain-coated plate; DMEM+0.5% FBS+0.5 mM MnCl2; read-out: EC50 α4β7. The method, then:
α4β7 Integrin Cell Capture Assay
The potency of inhibitors in preventing α4β7 integrin interaction with MadCAM-1 was measured by monitoring the capture of α4β7 integrin expressing cells on a recombinant MadCAM-1 extracellular domain-coated plate.
384-Well plates (Corning 3702) were coated with MadCAM-1 extracellular domain by dispensing 20 μL of MAdCAM-1 at 1.0 μg/mL per well and incubating overnight at 4° C. The plates were then washed with PBS and blocked with 3% BSA for 2 hours before being washed again.
RPMI8866 cells were spun down and re-suspended in assay medium (DMEM+0.5% FBS+0.5 mM MnCl2) at a density of 0.5×10^6 cells/mL. The cells were then dispensed (60 μL/well) to a 384-well plate (Greiner 781280) that was previously spotted with 60 nL of test compound per well. The plates were incubated at 37° C. for 1 hour. 50 μL of cells were transferred to the blocked, MadCAM-1-coated plates and incubated for 30 minutes at 37° C. 10 μL of 12% glutaraldehyde containing Hoechst 33342 (0.06 mg/mL) was added to the cells (2% glutaraldehyde and 0.01 mg/mL final concentrations). The plates were incubated for 90 minutes at room temperature. The plates were then washed 3 times with 70 μL of PBS per well and imaged on a Cellomics ArrayScan instrument. The cells that were bound to the plate were counted and plotted against the compound concentration to determine the EC50 of the test compounds.
With `Cc1cc(N2CCOC[C@@H]2C(F)(F)F)cc(F)c1C(=O)N[C@@H](Cc1ccc(-c2c(C(F)(F)F)cc(C)n(C)c2=O)c2nccnc12)C(=O)O` (atropisomer, axis not shown) [Example 178], the EC50 stood at 0.08 nM.

Take `Cc1cc(C(F)(F)F)c(-c2ccc(C[C@H](NC(=O)c3c(F)cc(N4CCOC[C@@H]4C(F)(F)F)cc3F)C(=O)O)c3nccnc23)c(=O)n1C` (atropisomer, axis not shown) [Example 179]: the EC50 amounted to 0.1 nM.

Turning to `O=C(N[C@@H](Cc1ccc(-c2c(Cl)cc(F)cc2Cl)c2cccnc12)C(=O)O)c1c(F)cc(N2CCOCC2C(F)(F)F)cc1F` (single isomer, unassigned) [Example 5], the EC50 is 702 nM.

For `O=C(N[C@@H](Cc1ccc(-c2c(Cl)cc(F)cc2Cl)c2cccnc12)C(=O)O)c1c(F)cc(N2CCOCC2C(F)(F)F)cc1F` (single isomer, unassigned) [Example 6], the EC50 came out at 139 nM.

As for `CC[C@@H](Nc1cc(F)c(C(=O)N[C@@H](Cc2ccc(-c3c(C)n(C)c(=O)n(C)c3=O)c3cccnc23)C(=O)O)c(F)c1)C(F)(F)F` (single isomer, unassigned) [Example 8], the EC50 stood at 0.8 nM.

Consider `CC[C@@H](Nc1cc(F)c(C(=O)N[C@@H](Cc2ccc(-c3c(C)n(C)c(=O)n(C)c3=O)c3cccnc23)C(=O)O)c(F)c1)C(F)(F)F` (single isomer, unassigned) [Example 9], for which the EC50 was determined as 4.1 nM.

As for `Cc1c(-c2ccc(C[C@H](NC(=O)c3c(Cl)cccc3Cl)C(=O)O)c3ncccc23)c(=O)n(C)c2ccc(F)cc12` (single isomer, unassigned) [Example 11], the EC50 is 0.5 nM.

Take `Cc1c(-c2ccc(C[C@H](NC(=O)c3c(Cl)cccc3Cl)C(=O)O)c3ncccc23)c(=O)n(C)c2ccc(F)cc12` (single isomer, unassigned) [Example 12]: the EC50 came out at 19.5 nM.

Take `Cc1c(-c2ccc(C[C@H](NC(=O)c3c(Cl)cccc3Cl)C(=O)O)c3ncccc23)c(=O)n(C)c2ccccc12` (single isomer, unassigned) [Example 47]: the EC50 was 28.6 nM.

Regarding `Cc1c(-c2ccc(C[C@H](NC(=O)c3c(Cl)cccc3Cl)C(=O)O)c3ncccc23)c(=O)n(C)c2ccccc12` (single isomer, unassigned) [Example 48], the EC50 is 2.1 nM.

As to `COc1cc(F)cc(C(F)(F)F)c1-c1ccc(C[C@H](NC(=O)c2c(Cl)cccc2Cl)C(=O)O)c2ncccc12` (single isomer, unassigned) [Example 49], the EC50 was found to be 46.2 nM.

On to `COc1cc(F)cc(C(F)(F)F)c1-c1ccc(C[C@H](NC(=O)c2c(Cl)cccc2Cl)C(=O)O)c2ncccc12` (single isomer, unassigned) [Example 50], for which the EC50 was found to be 152 nM.

Take `COc1cc(F)cc(Cl)c1-c1ccc(C[C@H](NC(=O)c2c(Cl)cccc2Cl)C(=O)O)c2ncccc12` (single isomer, unassigned) [Example 53]: the EC50 was determined as 150 nM.

As to `COc1cc(F)cc(Cl)c1-c1ccc(C[C@H](NC(=O)c2c(Cl)cccc2Cl)C(=O)O)c2ncccc12` (single isomer, unassigned) [Example 54], the EC50 is 38.8 nM.

In the case of `Cc1cc(C(F)(F)F)c(-c2ccc(C[C@H](NC(=O)c3c(Cl)cccc3Cl)C(=O)O)c3ncccc23)c(=O)n1C` (single isomer, unassigned) [Example 60], the EC50 is 2.7 nM.

For `Cc1cc(C(F)(F)F)c(-c2ccc(C[C@H](NC(=O)c3c(Cl)cccc3Cl)C(=O)O)c3ncccc23)c(=O)n1C` (single isomer, unassigned) [Example 61], the concentration for a half-maximal effect (EC50) is 15.1 nM.

In the case of `Cn1c(=O)c(-c2ccc(C[C@H](NC(=O)c3c(Cl)cccc3Cl)C(=O)O)c3ncccc23)c(C(F)(F)F)c2ccccc21` (single isomer, unassigned) [Example 62], the EC50 was found to be 3.2 nM.

Consider `Cn1c(=O)c(-c2ccc(C[C@H](NC(=O)c3c(Cl)cccc3Cl)C(=O)O)c3ncccc23)c(C(F)(F)F)c2ccccc21` (single isomer, unassigned) [Example 63], for which the half-maximal effective concentration (EC50) is 33.8 nM.

With `Cn1c(=O)c(-c2ccc(C[C@H](NC(=O)c3c(Cl)cccc3Cl)C(=O)O)c3ncccc23)c(C(F)(F)F)c2cc(Br)ccc21` (single isomer, unassigned) [Example 64], the concentration for a half-maximal effect (EC50) was found to be 4.4 nM.

In the case of `Cn1c(=O)c(-c2ccc(C[C@H](NC(=O)c3c(Cl)cccc3Cl)C(=O)O)c3ncccc23)c(C(F)(F)F)c2cc(Br)ccc21` (single isomer, unassigned) [Example 65], the EC50 turned out to be 26.8 nM.

Turning to `COc1cnn(C)c(=O)c1-c1ccc(C[C@H](NC(=O)c2c(Cl)cccc2Cl)C(=O)O)c2ncccc12` (single isomer, unassigned) [Example 73], the half-maximal effective concentration (EC50) is 8.4 nM.

With `Cc1c(-c2ccc(C[C@H](NC(=O)c3c(Cl)cccc3Cl)C(=O)O)c3ncccc23)c(=O)n(C)c2ccc(Cl)cc12` (single isomer, unassigned) [Example 75], the EC50 worked out at 23 nM.

On to `Cc1c(-c2ccc(C[C@H](NC(=O)c3c(Cl)cccc3Cl)C(=O)O)c3ncccc23)c(=O)n(C)c2ccc(Cl)cc12` (single isomer, unassigned) [Example 76], for which the EC50 was determined as 55.7 nM.

Turning to `Cc1c(-c2ccc(C[C@H](NC(=O)c3c(Cl)cccc3Cl)C(=O)O)c3ncccc23)c(=O)n(C)c2cc(Cl)ccc12` (single isomer, unassigned) [Example 77], the EC50 is 60.4 nM.

Regarding `Cc1c(-c2ccc(C[C@H](NC(=O)c3c(F)cccc3F)C(=O)O)c3ncccc23)c(=O)n(C)c(=O)n1C` (single isomer, unassigned) [Example 81], the EC50 amounted to 6.6 nM.

With `Cc1c(-c2ccc(C[C@H](NC(=O)c3c(F)cccc3F)C(=O)O)c3ncccc23)c(=O)n(C)c(=O)n1C` (single isomer, unassigned) [Example 82], the EC50 stood at 39 nM.

For the compound `Cc1cc(C(F)(F)F)c(-c2ccc(C[C@H](NC(=O)c3c(F)cc(N4CCOC[C@@H]4C(F)(F)F)cc3F)C(=O)O)c3ncccc23)c(=O)n1C` (single isomer, unassigned) [Example 85], the EC50 came to 3 nM.

For the compound `Cc1cc(C(F)(F)F)c(-c2ccc(C[C@H](NC(=O)c3c(F)cc(N4CCOC[C@@H]4C(F)(F)F)cc3F)C(=O)O)c3ncccc23)c(=O)n1C` (single isomer, unassigned) [Example 86], the EC50 was 0.3 nM.

Broadly, the EC50 is the concentration giving half of the maximal effect.

Values taken from patent US11179383B2 (Gilead Sciences, Inc., priority 2018, dated 2021).
